The results in this text go back to patent US8236963B2, “Tricyclic spiro derivatives as CRTH2 modulators” (Merck Serono SA, priority 2005, dated 2012).

Molecules are shown by their SMILES. pKi: −log10 of the molar value. Where only a bound is given, the exact number is not on record here.

In data set [1] the target is T1, CRTH2 (Homo sapiens, UniProt Q9Y5Y4).
T1 sequence (Q9Y5Y4 1-395): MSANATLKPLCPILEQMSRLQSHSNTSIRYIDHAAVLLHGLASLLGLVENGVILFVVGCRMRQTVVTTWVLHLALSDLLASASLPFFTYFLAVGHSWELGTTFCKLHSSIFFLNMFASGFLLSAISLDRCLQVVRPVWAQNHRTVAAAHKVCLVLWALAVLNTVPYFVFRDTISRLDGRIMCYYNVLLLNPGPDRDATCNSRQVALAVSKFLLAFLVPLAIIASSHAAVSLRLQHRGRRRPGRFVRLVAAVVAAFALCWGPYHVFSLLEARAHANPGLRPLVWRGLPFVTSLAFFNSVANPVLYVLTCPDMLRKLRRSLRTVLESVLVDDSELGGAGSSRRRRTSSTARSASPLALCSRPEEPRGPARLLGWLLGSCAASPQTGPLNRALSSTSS
Kind of data set: Determination of Ki (radioligand binding assay, equilibrium competition against [3H]PGD2). On the set-up: expressed in transfected cells; host or cells: HEK293 (EBNA) cells, membrane preparation. The conditions noted are these: average of at least three independent dose response experiments. As to the method:
The inhibitory activity can be investigated by a radioligand binding assay (Sawyer et al., Br. J. Pharmocol 2002, 137, 1163-72). The radioligand binding assay was performed at room temperature in binding buffer (10 mM HEPES/KOH pH […], with protease inhibitor cocktail tablets), containing 1.5 nM [^3H]PGD2 (Amersham, 156 Cie/mmol), and 10 μg of hCRTH2 HEK293 (EBNA) cell membrane protein in a final volume of 100 μl in 96 well plates (Corning, USA). Non-specific binding was determined in the presence of 1 μM PGD2 (Cayman, USA). Competing spiro-indolinones were diluted in dimethylsulphoxide so that the total volume of dimethylsulfoxide was kept constant at 1% dimethylsulphoxide (Me2SO) Serial dilutions of 100 μM and […] were prepared. 10 μl each of these spiro-indolinone stock solutions were added. Incubation (60 min at room temperature) was terminated by rapid filtration through 96 wells hydrophobic GF/C Unifilter plates (Whatman, USA). Filters were washed twice with 250 μl of Tris-HCl pH 7.4, 10 mM MnCl2, and residual radioligand bound to the filters was mixed to 100 μl of liquid scintillation cocktail (Optiphase Supermix, Perkin Elmer, USA) and binding activity was determined by counting residual radioligand using a 1450 Micro-beta scintillation counter (Wallac, UK). The following representative compounds were tested. All inhibited the binding of PGD2 to CRTH2 by more than 70%. • (1′-benzyl-5-chloro-2,2′,5′-trioxospiro[indole-3,3′-pyrrolidin]-1(2H)-yl)acetic acid • (1′-benzyl-5-fluoro-2,2′,5′-trioxospiro[indole-3,3′-pyrrolidin]-1(2H)-yl)acetic acid • 4-(1′-allyl-5-chloro-2,2′,5′-trioxospiro[indole-3,3′-pyrrolidin]-1(2H)-yl)butanoic acid • [5-chloro-1′-(2-methoxyethyl)-2,2′,5′-trioxospiro[indole-3,3′-pyrrolidin]-1(2H)-yl]acetic acid • 4-(1′-benzyl-5-chloro-2,2′,5′-trioxospiro[indole-3,3′-pyrrolidin]-1(2H)-yl)butanoic acid • (1′-benzyl-5-methoxy-2,2′,5′-trioxospiro[indole-3,3′-pyrrolidin]-1(2H)-yl)acetic acid • [5-fluoro-1′-[(2-methoxyethoxy)methyl]-2,2′,5′-trioxospiro[indole-3,3′-pyrrolidin]-1(2H)-yl]acetic acid • 4-(1′-allyl-5-fluoro-2,2′,5′-trioxospiro[indole-3,3′-pyrrolidin]-1(2H)-yl)butanoic acid • 4-(1′-benzyl-5-fluoro-2,2′,5′-trioxospiro[indole-3,3′-pyrrolidin]-1(2H)-yl)butanoic acid
Ki values were determined by equilibrium competition binding experiments against [^3H]PGD2. Ki values were calculated from the formula below and represent the average of at least three independent dose response experiments. The Ki values give the ligand concentrations necessary to inhibit 50% of the binding of [^3H]PGD2 to CRTH2. Ki=IC50/(1+[Concentration of Ligand]/Kd)]
All experiments were performed in 96 well plates, in a final volume of 100 μl according to the above described filtration assay. The concentration of membranes and 3 [H]PGD2, as well as the positive and negative controls were identical to the conditions described above.

Data set [2] relates to DK-PGD2-induced vascular leakage. Description: Model of DK-PGD2-induced vascular leakage in mice. In kind it is in vivo, Balb/c mice. To be noted: Mus musculus, 1.5 h; dose of 30 mg/kg; 30 min before DK-PGD2 challenge; Evans blue extravasation. As to the method:
This test is described in Takeshita et al. (2004). Balb/c mice (Elevage Janvier) (8 week old) received an intradermal injection of DK-PGD2 (10 μg in 30 μl) on their shaved backs and an intravenous injection of Evans blue solution (25 mg/kg) 30 min after administration of the test molecules (spiro derivative). Ninety minutes after the challenge, the animals were sacrificed. The skin of the back was removed and blood was sampled. The extravasated dye (punch diameter: 5 mm) was extracted by 0.2 ml of formamide and was quantified by fluorescence (E1: 585 nm, E2: 660 nm). The Evans Blue extravasation ratio was expressed as the following: skin/serum×1000.

The test system of data set [3] is DNFB-induced ear swelling. Kind of data set: CHS model (contact hypersensitivity to DNFB, ear swelling). The conditions noted are these: 60 mg/kg; po; 30 min before DNFB challenge; ear thickness on day 6. In kind it is in vivo, Balb/c mice. The source says: The contact hypersensitivity model can be used to evaluate the therapeutic efficacy of spiro derivatives on skin inflammation mediated by T cells. The model is well established for characterization of compound for dermatological indications like psoriasis and allergic contact dermatitis (Xu et al. J Exp Med. 183, 1001-12, 1996). It involves a sensitization phase and a subsequent challenge with an antigen (DNFB, 2,4-dinitrofluorbenzene). […] The edema can be measured by caliper at the challenged site (ear of the mice). Intravenous or oral administration with 10% Labrasol as vehicle of the compounds of the invention 30 min before challenge with DNFB results in a decrease of the swelling and therefore reduces inflammation in the skin compared to positive controls treated with vehicle only before challenge with the antigen. Negative control mice are not sensitized, but challenged with DNFB, therefore no T cell dependent inflammation occurs and no edema is formed. Balb/c mice were obtained from CharlesRiver (Calcco, Italy). […]
Mice were sensitized and challenged to elicit CHS to DNFB. […] Ear thickness was monitored on day 6 (1 day after challenge) using a caliper (Mitutoyo, Milan, Italy). Ear swelling was calculated as ((Tn−T5)right ear−(Tn−T5)left ear), wherein Tn and T5 represent values of ear thickness at day n of investigation and day 5 prior to challenge, respectively.

Data set [4] addresses T1, CRTH2. Description: Radioligand binding assay ([3H]PGD2, hCRTH2 HEK293 (EBNA) cell membranes). Further details: expressed in transfected cells; host or cells: HEK293 (EBNA) cells, membrane preparation. The conditions noted are these: 1.5 nM [3H]PGD2, 10 μg hCRTH2 HEK293 (EBNA) membrane protein, 60 min at room temperature. The source says: Human CRTH2 cDNA was amplified by PCR using a human urinary bladder cDNA library as a template and specific primers containing HindIII and BamHI restriction sites for cloning into the pCEP4 vector (Invitrogen). The vector construction is described in detail in Sawyer et al., Br. J. Pharmocol 2002, 137, 1163-72. The nucleotide sequence of the cloned cDNA was identical the previously reported hCRTH2 sequence (Nagata et al, 1999, J. Immunol. 162, 1278-1286).
HEK293 (EBNA) cells were transfected with the pCEP4-hCRTH2 construct using the calcium phosphate technique. Cells were maintained in culture at 37° C. in an atmosphere of 5% CO2 in Dulbecco's modified Eagle's F12 medium (Invitrogen), containing 10% heat-inactivated foetal calf serum (TerraCell International, Canada), 2 mM Glutamine, 100 units/ml of penicillin and 100 μg/ml streptomycin (Invitrogen). 48 hours after the transfection, cells were grown in presence of 300 μg/ml of Hygromycin B (Invitrogen) for 4 weeks and antibiotic resistant cells were amplified for cell membrane preparation.
Adherent HEK293 (EBNA) cells expressing hCRTH2 were cultured in 225 cm^2 cell culture flasks (Corning, USA) in 30 ml of medium. After two rinses of phosphate buffered saline (PBS), cells were harvested in 10 ml of PBS containing 1 mM EDTA, centrifuged at 500×g for 5 min at 4° C. and frozen at −80° C. The pellet was re-suspended in 50 mM Tris-HCl, pH 7.4, 2 mM EDTA, 250 mM Sucrose, containing protease inhibitor cocktail tablets, (Complete EDTA-free, Roche, Germany) and incubated 30 min at 4° C. Cells were disrupted by nitrogen cavitation (Parr Instruments, USA) at 4° C. (800 p.s.i. for 30 min), and centrifuged at 500×g for 10 min at 4° C. Pellet containing nuclei and cellular debris was discarded and supernatant was centrifuged 60 min at 4° C. at 45000×g. Membrane pellet was re-suspended in storage buffer (10 mM HEPES/KOH pH 7.4, 1 mM EDTA, 250 mM sucrose, protease inhibitor cocktail tablets) using Dounce homogenization and frozen in liquid nitrogen, and stored at −80° C.
The inhibitory activity can be investigated by a radioligand binding assay (Sawyer et al., Br. J. Pharmocol 2002, 137, 1163-72). The radioligand binding assay was performed at room temperature in binding buffer (10 mM HEPES/KOH pH […], with protease inhibitor cocktail tablets), containing 1.5 nM [^3H]PGD2 (Amersham, 156 Cie/mmol), and 10 μg of hCRTH2 HEK293 (EBNA) cell membrane protein in a final volume of 100 μl in 96 well plates (Corning, USA). Non-specific binding was determined in the presence of 1 μM PGD2 (Cayman, USA). Competing spiro-indolinones were diluted in dimethylsulphoxide so that the total volume of dimethylsulfoxide was kept constant at 1% dimethylsulphoxide (Me2SO) Serial dilutions of 100 μM and […] were prepared. 10 μl each of these spiro-indolinone stock solutions were added. Incubation (60 min at room temperature) was terminated by rapid filtration through 96 wells hydrophobic GF/C Unifilter plates (Whatman, USA). Filters were washed twice with 250 μl of Tris-HCl pH 7.4, 10 mM MnCl2, and residual radioligand bound to the filters was mixed to 100 μl of liquid scintillation cocktail (Optiphase Supermix, Perkin Elmer, USA) and binding activity was determined by counting residual radioligand using a 1450 Micro-beta scintillation counter (Wallac, UK). The following representative compounds were tested. […]

For `O=C(O)CN1C(=O)C2(NC(=O)N(Cc3cc(Cl)ccc3F)C2=O)c2cc(Cl)ccc21` (stereo not drawn) [Compound 105, [5′-chloro-1-(5-chloro-2-fluorobenzyl)-2,2′,5-trioxospiro[imidazolidine-4,3′-indol]-1′(2′H)-yl]acetic acid], the negative logarithm of the Ki (pKi) (commonly the Ki on a negative log10 scale, so that one unit is a factor of ten) at CRTH2 [1] was 7.80. In addition, in data set [2], the inhibition in vivo – broadly, the change of the read-out against control, counted positive when it falls – at 30 mg/kg was found to be 60%. Moreover, in data set [3], the “reduction in ear swelling” value is 55%.
In the case of `O=C(O)CN1C(=O)C2(CC(=O)N(Cc3ccccc3)C2=O)c2cc(Cl)ccc21` (stereo not drawn) [Example 12, (1′-Benzyl-5-chloro-2,2′,5′-trioxo-spiro[indole-3,3′-pyrrolidin]-1-yl)acetic acid], the melting point (as a rule, the temperature of the solid-liquid transition) lay within 205 to 207 °C. The inhibition (usually the change of the read-out against control, counted positive when it falls) on CRTH2 [4] is over 70%.
Consider `O=C(O)CN1C(=O)C2(CC(=O)N(Cc3ccccc3)C2)c2cc(Cl)ccc21` (stereo not drawn) [Compound 113, (1′-benzyl-5-chloro-2,5′-dioxospiro[indole-3,3′-pyrrolidin]-1(2H)-yl)acetic acid], for which, at CRTH2 [1], the pKi is 6.20. In data set [2], the inhibition in vivo at 30 mg/kg came to 55%.
Compound `O=C(O)CN1C(=O)[C@@]2(CC(=O)N(Cc3cc(Cl)ccc3F)C2=O)c2cc(Cl)ccc21` [Compound 112, (3R)-[5-chloro-1′-(2-fluoro-5-chlorobenzyl)-2,2′,5′-trioxospiro[indole-3,3′-pyrrolidin]-1(2H)-yl]acetic acid] showed a pKi on CRTH2 [1] of 6.82. In addition, testing at 30 mg/kg in data set [2] gave an inhibition in vivo of 61%.
For `O=C(O)CN1C(=O)C2(CC(=O)N(Cc3cc(Cl)ccc3F)C2)c2cc(Cl)ccc21` (stereo not drawn) [Compound 116, [5-chloro-1′-(5-chloro-2-fluorobenzyl)-2,5′-dioxospiro[indole-3,3′-pyrrolidin]-1(2H)-yl]acetic acid], in that order: 7.66 and 51%.
Compound `O=C(O)CN1C(=O)[C@]2(CC(=O)N(Cc3cccc(Cl)c3)C2=O)c2cc(Cl)ccc21` [Compound 83, (3S)-[5-chloro-1′-(3-chlorobenzyl)-2,2′,5′-trioxospiro[indole-3,3′-pyrrolidin]-1(2H)-yl]acetic acid] returned an inhibition in vivo at 30 mg/kg in data set [2] of 77%. In data set [3], the “reduction in ear swelling” value is 40%.
For the compound `O=C(O)CN1C(=O)[C@]2(CC(=O)N(Cc3cc(Cl)ccc3F)C2=O)c2cc(Cl)ccc21` [Compound 111, (3S)-[5-chloro-1′-(2-fluoro-5-chlorobenzyl)-2,2′,5′-trioxospiro[indole-3,3′-pyrrolidin]-1(2H)-yl]acetic acid], the pKi on CRTH2 [1] was 6.33. The compound also gave an inhibition in vivo at 30 mg/kg in data set [2] of 65%.
